Marks after values point to notes of the source that are not given here. Bridge positions count the residues as written; N and C are the ends. Ends that are not written are not given here. I, II: the chains in the order shown.
How the values were obtained:
[1] = ANTS/DPX leakage of POPE/POPG LUVs; format: biochemical; details: for Leakage: POPE/POPG LUVs, lipid 50 μM, pH 7.4, 37°C
Method: (§1) Large unilamellar vesicles (LUVs) of ∼100 nm size were prepared and assayed for AMP-induced fluorescence leakage as described previously ([23]). Intrinsic lipid curvatures were determined using a SAXSpace small-angle x-ray camera (Anton Paar, Graz, Austria) applying previously developed procedures ([24]). Monte Carlo (MC) simulations were performed using the Metropolis scheme and computationally efficient implicit-solvent coarse-grained models. Lipids were described by a three-bead model developed by Cooke and Deserno ([25]), and the peptide was modeled by a patchy spherocylinder ([26]). Free-energy calculations for peptide translocation were performed using the Wang-Landau method ([27]). For details of experimental and simulation procedures, see the Supporting Material. […]
Lipid films (20 mg total lipid) for dye-release experiments were prepared by mixing the appropriate amounts of dissolved phospholipids before evaporation of solvents under a stream of nitrogen and stored in vacuum overnight. After addition of Hepes buffer containing the fluorophor/quencher ANTS/DPX (10 mM Hepes, 68 mM NaCl, 12.5 mM ANTS, 45 mM DPX, pH 7.4), formation of lipid vesicles was achieved by equilibration at 15°C above the lipid’s melting temperature and intermittent vigorous vortex mixing. PE/PG-mixtures were additionally homogenized by six freeze/thaw-cycles. Large unilamellar vesicles (LUVs) were obtained by 25 cycles of extrusion of the hydrated liposomes through a polycarbonate filter (Millipore-IsoporeTM, Merck, Vienna) of 0.1 µm pore size above the lipid’s melting temperature. Non-encapsulated fluorophore and quencher were removed by size-exclusion chromatography using SephadexTM G-75 (Sigma-Aldrich, Vienna) gel as described earlier (1). LUVs were eluted with Hepes buffer (10 mM Hepes, 140 mM NaCl, pH 7.4). Liposomal lipids were quantified by the determination of lipid phosphorus according the method described by (2). The final LUV concentration for dye-release experiments was adjusted to 50 µM in Hepes buffer (10 mM Hepes, 140 mM NaCl, pH 7.4). […]
Leakage of the aqueous content of ANTS/DPX-loaded LUVs upon incubation with peptides was determined according to (9) and as detailed previously (1). Briefly, 2 ml of LUV suspension was filled into quartz cuvettes and equilibrated at 37°C for 5 minutes. Incremental amounts of peptide solutions prepared in Hepes buffer were added to the LUV suspension with µ-pipettes and mixed using a magnetic stirrer to achieve final peptide concentrations ranging from 0.016 - 1 μM, corresponding to peptide-to-lipid molar ratios from 1:3200 to 1:50. Fluorescence emission was recorded 5 minutes before and after the addition of peptides on a Cary Eclipse Fluorescence Spectrophotometer (Varian Inc., now Agilent Technologies, California, US) using an excitation wavelength of λex = 360 nm and an emission wavelength λem = 530 nm. The slit widths for excitation and emission monochromators were set to 10 nm.
(§2) Percentage of leakage was calculated from the fraction of the leakage (10) […]
(§3) where F is the measured fluorescence, F0 is the initial fluorescence without peptide, and Fmax is the fluorescence corresponding to 100% leakage gained by addition of 1% Triton X-100. […]
In order to verify the dimeric or monomeric state of peptides, 2 µg of peptides were dissolved in loading buffer without DTT and separated by a one-dimensional SDS-PAGE using 5 % stacking and 18 % separating gels according to the method of Laemmli (11). […]

[2] = system: E. coli K12; assay: MIC, inhibition of bacterial growth (turbidimetric, Bioscreen C); format: cell-based, Escherichia coli; details: E. coli K12, Mueller-Hinton broth without Ca2+, 37°C, no increment of turbidity after 48 h, CLSI guidelines
Method: To study the effect of magainins on metabolically active bacteria, we assessed the antimicrobial activity of the peptides by determining the MIC values according to Clinical and Laboratory Standards Institute (CLSI, formerly National Committee for Clinical Laboratory Standards) guidelines.
Inhibition of bacterial growth by frog peptides was determined using an automated turbidimetric-based system (Bioscreen C, Labsystem, Helsinki, Finland), which measures absorbance of cell cultures in 100-well plates at regular time intervals (λ = 580 nm). Assays were performed in Mueller-Hinton (MH) broth without Ca2+ (18) using Bioscreen polystyrene honeycomb 100-well plates. Briefly, serial dilutions of the AMPs or control antibiotics (gentamicin and ampicillin B) were made in MH broth and dispensed with a multi-pipette into […]
polystyrene honeycomb 100-well plates. E. coli K12 cells grown for 18–20 h on agar plates were suspended in saline adjusting the turbidity to an optical density at λ=565 nm (OD565) of 0.5 (~1 × 10^8 cells/mL) using a DEN-1B densitometer (Grant Instruments, Cambridge, UK).
A fifty-fold dilution of this E. coli suspension prepared in MH broth was mixed with 50 µL (1:1 volume ratio) of a given peptide solution by three times up and down pipetting. Resulting cell suspensions were grown at 37°C with continuous, low amplitude shaking. The turbidity was measured in intervals of 5 minutes (filter bandwidth: λ= 420 – 580 nm). MIC was considered as the minimum concentration of peptide that inhibited any increment of turbidity […]
2011. Studies on lactoferricin-derived Escherichia coli membrane-active peptides reveal differences in the mechanism of N-acylated versus nonacylated peptides. J Biol Chem […]
2. Broekhuyse, R. M. 1968. Phospholipids in tissues of the eye. […]
vinyl-ether phospholipids. Biochim Biophys Acta 152:307–315.
Chemistry and physics of lipids 154:64–67.
8. Israelachvili, J. N. 2011. Intermolecular and surface forces, 3rd ed. Academic Press, […]

[3] = cited from earlier work
From the text: Table 2 Thermodynamics of AMP Insertion in PC Membranes According to the Wimley-White Hydrophobicity Scale | column: % helix in PC

[4] = ANTS/DPX leakage of POPC/POPG LUVs; format: biochemical; details: 1 μM peptide, lipid 50 μM, pH 7.4, 37°C, three independent measurements
Method: as §1
(§4) Lipid films (20 mg total lipid) for dye-release experiments were prepared by mixing the appropriate amounts of dissolved phospholipids before evaporation of solvents under a stream of nitrogen and stored in vacuum overnight. […] Liposomal lipids were quantified by the determination of lipid phosphorus according the method described by (2). […]
(§5) Leakage of the aqueous content of ANTS/DPX-loaded LUVs upon incubation with peptides was determined according to (9) and as detailed previously (1). […]
as §2

[5] = ANTS/DPX leakage of lyso-PE/POPE/POPG LUVs; format: biochemical; details: 1 μM peptide, lipid 50 μM, pH 7.4, 37°C, three independent measurements
Method: as §1, §4, §5, §2

[6] = ANTS/DPX leakage of POPC LUVs; format: biochemical; details: within studied concentration range 0.016-1 μM, lipid 50 μM, pH 7.4, 37°C, three independent measurements
Method: as §1, §4, §5, §2

[7] = cited from earlier work; remark: listed apart in the source
From the text: Intriguingly, however, cytoplasmic membranes of Gram-negative bacteria are enriched in lipids with negative intrinsic curvature, such as phosphatidylethanolamine (PE) ([20]). This prompted us to correlate membrane-permeabilizing activities of magainin monomers and dimers in different lipid-only model systems with various intrinsic curvatures J0 determined from small-angle x-ray scattering (SAXS). In particular, we studied the activity of L18W-PGLa and MG2a, as well as their analogs containing GGC linkers, which were used to form the L18W-PGLa-MG2a hybrid peptide (Fig. 1). The choice of L18W-PG ...

[8] = ANTS/DPX leakage of POPC/Chol LUVs; format: biochemical; details: lipid 50 μM; for Leakage: dimers and mixture, highest concentration studied (1 μM), pH 7.4, 37°C
Method: as §1
Lipid films (20 mg total lipid) for dye-release experiments were prepared by mixing the appropriate amounts of dissolved phospholipids before evaporation of solvents under a stream of nitrogen and stored in vacuum overnight. After addition of Hepes buffer containing the fluorophor/quencher ANTS/DPX (10 mM Hepes, 68 mM NaCl, 12.5 mM ANTS, 45 mM DPX, pH 7.4), formation of lipid vesicles was achieved by equilibration at 15°C above the lipid’s melting temperature and intermittent vigorous vortex mixing. […] Liposomal lipids were quantified by the determination of lipid phosphorus according the method described by (2). […]
Leakage of the aqueous content of ANTS/DPX-loaded LUVs upon incubation with peptides was determined according to (9) and as detailed previously (1). […] Fluorescence emission was recorded 5 minutes before and after the addition of peptides on a Cary Eclipse Fluorescence Spectrophotometer (Varian Inc., now Agilent Technologies, California, US) using an excitation wavelength of λex = 360 nm and an emission wavelength λem = 530 nm. […]
as §2, §3

[9] = individual peptides at concentrations above 0.25 μM up to 1 μM (remained at the same level), three independent measurements
[10] = dimers, plateau/final value at high peptide concentration (up to 1 μM)

Row | Substance | Leakage [1, 9] [%] | MIC [2] [µg/mL] | % helix in PC [3] | Leakage [4] | Leakage [5] | Maximal leakage [6] [%] | Dye release from lipid vesicles compared to native PGLa [7] | Leakage [1, 10] [%] | Leakage [8] | Permeabilization capabilities after DTT reduction ([1]; POPE/POPG vesicles, DTT (40 μM) added to peptide solution before mixing with LUVs) | Peptide concentration above which active (leakage) [8] [µM]
1 | GIGKFLHSAKKFGKAFVGEIMNS-NH2 [MG2a] | ≤ 6 | 62.5 | 83 ^a % | – | – | – | – | – | – | – | –
2 | GMASKAGAIAGKIAKVAWKAL-NH2 [L18W-PGLa] | ≤ 6 | ~31.25 | 72 ^b % | full LUV leakage | full LUV leakage | ≤ 10 | almost identical to that induced by native PGLa | – | – | – | –
3 | I: GIGKFLHSAKKFGKAFVGEIMNSGGC-NH2 / II: GIGKFLHSAKKFGKAFVGEIMNSGGC-NH2 (disulfide I:26-II:26 (inferred)) [MG2a homodimers] | – | 7.8 | – | – | – | – | – | ~60 | not able to induce significant dye release | – | –
4 | I: GMASKAGAIAGKIAKVAWKALGGC-NH2 / II: GMASKAGAIAGKIAKVAWKALGGC-NH2 (disulfide I:24-II:24) [L18W-PGLa homodimers] | – | ~7.8 | – | – | – | – | – | ~100 | ~74% | identical with that of L18W-PGLa peptide | > 0.1
